Laboratory results as given in patent publication US10450613B2, “EGFR/NEDD9/TGF-β interactome and methods of use thereof for the identification of agents having efficacy in the treatment of hyperproliferative disorders” (Fox Chase Cancer Center, priority 2007, dated 2019).

Legend:
cancer cells = test: Drug synergy testing (Chou-Talalay CI), cell line not stated (FIG. 17B); format: cell-based
Experimental: (§1) The coefficient of interaction (CI) between pharmacological inhibitors was established by the Chou-Talalay method (Chou et al., (1984) Adv Enzyme Regul 22:27). The software package CalcuSyn (BioSoft, UK) was used to automate calculations. Briefly, for each drug tested, an IC50 curve was established in each cell line, and used to select combination doses of drugs for subsequent synergy tests. 3500 cells were plated per well in 96-well plates. After 24 hours, cells were treated with serial dilutions of individual inhibitors, or combinations of two inhibitors maintained at a constant molar ratio. After 72 hours incubation, cell viability was measured using either CellTiter Blue (Promega, USA) or a WST1 assay (Roche Applied Science, Indianapolis, Ind.). The CI values for each dose and corresponding cytotoxicity were expressed as the fraction affected (Fa) and were calculated using CalcuSyn computer software and presented as Fa-CI plots. CI values <1 indicate synergy, and <0.5 strong synergy, between the two agents in producing cytotoxic effect.

A431 cells [1] = test: siRNA library sensitization screen, Alamar blue (CellTiter Blue) viability, sensitization index (SI) with erlotinib, panitumumab, U0126, CPT11 vs DMSO; format: cell-based, human; settings: siRNA against the named gene, false discovery rate set at 5%; for Ratio (Erlotinib): sensitization to erlotinib; for Ratio (CPT11): sensitization to CPT11
Excerpt: The custom siRNA library targeting 638 human genes was designed and synthesized with two siRNA duplexes for each gene target (Qiagen, Valencia, Calif.). Transfection conditions were established for the A431 […] (K-Ras wt, p53 mutant) cell line (data not shown) using PLK1 & GL2 siRNA controls to achieve Z′ values of 0.5 or greater. IC values using erlotinib, panitumumab, and camptothecin (CPT11) were established (data not shown). Details of establishment of Z′ factor for transfections, and statistical consideration for selection of preliminary positive candidates graphically outlined in FIG. 4B, and based on standard approaches described in detail in Whitehurst et al., (2007) Nature 446:815). For each gene targeted, two independent siRNA duplexes were combined and arrayed in 96-well plates with a layout intended to seed in regular positive siRNA (targeting PLK1) and negative control siRNA (targeting insect luciferase GL2, Thermo Fisher Scientific, USA) amongst test siRNAs. A reverse transfection protocol was used where siRNA at final concentration of 50 nM was mixed with Dharmafect 1 transfection reagent according to the manufacturer's instructions (Thermo Fisher, USA). Cells (3500 per well, resuspended in 1% FBS/DMEM) were added directly to wells using an automated liquid dispenser. At 24 hr following transfection, two replica plates were treated with drugs at previously established IC30 or 0.02% DMSO diluted in culture media. The viability at 96 hr post-transfection was assessed using Alamar blue (CellTiter Blue Viability Assay, Promega, USA). Dose-responses for each drug and cell line were retested in parallel with each screen.
For screening, A431 cells were transfected with siRNA followed by exposure to vehicle (0.02% DMSO), or drug used at inhibitory concentrations of 30% KA. Viability was determined for each target gene and normalized to the averaged GL2 viability on each plate. Sensitization index (SI) was calculated for each individual well on a 96-well plate as SI=(Vdrug/GL2drug)/(VDMSO/GL2DMSO), where V was viability in wells transfected with targeting duplexes and GL2 was the averaged viability of 4 wells with non-targeting negative control siRNA on the same plate. All calculations were automated using cellHTS package within open source Bioconductor Package (on the web at bioconductor.org) (Gentleman et al. (2004) Genome Biol. 5:R80). The effect of drug treatment on viability was measured based on the normalized viabilities in the drug treated and vehicle wells using Limma (Smyth, G. K. (2004) Statistical Applications in genetics and molecular biology 3, Article 3). Limma borrows strength across genes based on an empirical Bayes approach and identifies statistically significant changes in viability by combining information from a set of gene-specific tests. Hits were identified based on statistical significance as well as biological significance. Statistical significance was determined by p-value controlled for the false discovery rate (FDR) using the Benjamini-Hochberg step-up method (Benjamini et al. (1995) J. Royal Stat Soc B 57:289) to account for multiple testing. […] Biological significance was arbitrarily defined as an increase or decrease in SI greater than 15%. Hits identified as statistically and biologically significant were further validated.
Primary sensitizing hits obtained with erlotinib and/or cetuximab were further tested with erlotinib and DMSO in the A431 cell line by using 4 siRNA duplexes individually (the two originally used in the screen, plus two new non-overlapping RNA oligoribonucleotides), to confirm the sensitization phenotype at 10 nM and 50 nM concentrations. Hits were considered as validated by this method if at least 2 out of 4 siRNA reproduced the sensitization phenotype with SI≤0.85, FDR≤20% for each individual siRNA sequence in at least two independent experiments. […]

[2] = tested on: A431, HCT116, DLD-1, DKS-8, LoVo, SCC61, PANC-1 and MIA PaCa-2 cell lines; test: Cell line specificity of hit activity: siRNA sensitization to erlotinib, cetuximab and CPT11, and intrinsic viability; format: cell-based, human; settings: network analysis of stronger hits (FIG. 14A)
Experimental: Cell line specificity of hit activity. Of the confirmed set of 61 siRNA targets identified for erlotinib in A431 cells, 45 were further tested for sensitization to erlotinib, cetuximab and camptothecin in A431 versus refractory adenocarcinoma cell lines for which optimal transfection conditions and drug sensitivity had been established. […] SI and statistical significance were calculated as in the validation experiments. All experiments were performed at least three times independently.
In subsequent data analysis, two approaches were used. […] For all experiments performed with a given cell:drug combination (e.g., A431:erlotinib, or HCT116:CPT11) averages were determined based on at least three experimental runs. […]
In additional experiments, we comparatively profiled the efficacy of the hit panel as sensitizers of erlotinib, cetuximab, and CPT11 across a set of cell lines, including A431, the colorectal adenocarcinoma cell lines HCT116, DLD-1, DKS-8, and LoVo, the head and neck squamous cell carcinoma cell line SCC61, and the pancreatic adenocarcinoma cell lines PANC-1 and MIA PaCa-2 (FIG. 13A). […] To compensate for this difference, we analyzed the data in two ways: first, by conventional threshold analysis (FIG. 13A, left), and second, by assessing the rank order of sensitization phenotype, using relaxed statistical criteria (FIG. 13A, right; see Materials and Methods). […]

AKT = test: Western analysis of AKT activation in A431 lysates (siRNA or inhibitors), basal and EGF-stimulated; format: cell-based, human; settings: serum starvation or EGF stimulation (FIG. 16)
Experimental: To measure the effect of siRNAs on the activity of EGFR effectors, cells were transfected with siRNA, and the culture media replaced with glutamine-supplemented serum-free DMEM at 24 hrs post-transfection. After overnight incubation, cells were treated with DMSO, erlotinib or PHA-680632 for 2 hrs, then either left untreated, or stimulated with EGF at 15 ng/ml for 15 minutes. Cell extracts were prepared using M-PER™ mammalian protein extraction buffer (Thermo Scientific, Rockford, Ill.) supplemented with the Halt™ phosphatase inhibitor cocktail (Thermo Scientific, Rockford, Ill.) and the Complete Mini™ protease inhibitor cocktail (Roche Diagnostics Gmbh, Manheim, Germany). Extracts were centrifuged at 15,000 g for 10 min at 4° C. Western signal detection was performed using antibodies to indicated proteins with LiCor technology (Lincoln, Nebr., USA) or standard X-ray film.

A431 cells [3] = test: Drug synergy testing (Chou-Talalay CI), viability; format: cell-based, human; settings: 72 hours, CI <1 synergy, <0.5 strong synergy
Experimental: as §1

HCT116 cells = test: Drug synergy testing (Chou-Talalay CI), viability; format: cell-based, human; settings: HCT116; 72 hours; CI <1 synergy, <0.5 strong synergy
Experimental: as §1

A431 cells [4] = test: Cell motility, wound healing assay; format: cell-based, human; settings: 0.5 μM erlotinib with 0.5 μM Stattic or 0.25 μM Ro-318220, 18 hours
Experimental: Soft agar assays were done essentially as described (10). Cells were seeded at 2000 cells per well and grown for 2-3 weeks. Colonies were stained with thiazolyl blue tetrazolium bromide, and scored using a Nikon SMZ1500 microscope coupled with Cool Snap charge coupled device camera (Roper Scientific, Inc., Tucson, Ariz.) with Image Pro-Plus software (Media Cybernetics, Silver Spring, Md.). Survival curves were based on at least two concentration points, with values determined in at least two separate experiments, with each assay done in duplicate. Drug interactions were calculated as above using CalcuSyn software (Biosoft, Ferguson, Mo.) to establish the combination index (CI). For motility assays, movement of A431 cells grown in 1% FCS into a scratched area of the monolayer was monitored with a phase contrast 10× objective using an inverted microscope (Nikon TE2000). Images were obtained every 20 min for 18 hours. Areas of migration were estimated using MetaMorph software. For both studies, analysis of variance was used to determine the treatment effect for each comparison. The logarithm of normalized ratios (to vehicle control) was used in the analysis. Multiple hypothesis testing was accounted for by the false discovery rate method of Benjamini & Hochberg (supra).

A431 cells [5] = test: Phosphoproteomic analysis, Proteome Profiler array of 46 signaling proteins; format: cell-based, human; settings: A431, serum starved, EGF-stimulated (FIG. 19A)
Experimental: For phosphoproteomic analysis, we used the Proteome Profiler™ array (R&D Systems, Minneapolis, Minn., USA) according to the manufacturer's protocol. In brief, A431 cells were grown for 24 hours in DMEM supplemented with L-glutamine and 1% FBS to 70% confluency. Cells then were either serum starved overnight or remained in the same media. Serum starved and cells incubated in 1% serum were either left untreated or incubated with IC30 concentrations of inhibitors for 3 hours. […] Serum-starved cells were subsequently stimulated with recombinant EGF (Sigma-Aldrich, USA) at 15 ng/mL for 15 minutes before lysis. For a subset of phospho-proteins, phosphorylation status was confirmed by Western blot. Quantification was done using ImageJ software.

O=C(Nc1cccc(Nc2nccc(Nc3cccc(C(F)(F)F)c3)n2)c1)C1CC1 [C1368]
Synergy with erlotinib (Chou-Talalay CI) (cancer cells): synergized

GRB14 (sense AAGAATGTATTTCACCTGCAA; target sequence only, antisense strand not given here)
Ratio (Erlotinib) (A431 cells [1]): 0.54

PRKACB: siRNA duplexes of the custom library targeting PRKACB (sense CAGCCTGTGTAGTGTGACAAA; target sequence only, antisense strand not given here)
Ratio (CPT11) (A431 cells [1]): 0.43 | Ratio (Erlotinib) (A431 cells [1]): 0.53 | Ratio (Panitumumab) (A431 cells [1]; sensitization to panitumumab): 0.63 | Sensitizing activity of stronger hits across cell lines [2]: strong sensitizers

Cn1cc(C2=C(c3cn(C4CCN(Cc5ccccn5)CC4)c4ccccc34)C(=O)NC2=O)c2ccccc21 [enzastaurin]
Akt S473 phosphorylation, inhibitor in combination with erlotinib (AKT): significantly reduced phosphorylation | Synergy with erlotinib in reducing viability (Chou-Talalay CI) (A431 cells [3]): synergized very significantly | Synergy with erlotinib in reducing viability (Chou-Talalay CI) (HCT116 cells): synergized very significantly

O=[N+]([O-])c1ccc2c(c1)S(=O)(=O)C=C2 [Stattic]
Akt S473 phosphorylation, inhibitor in combination with erlotinib (AKT): significantly reduced phosphorylation | Synergy with erlotinib in reducing viability (Chou-Talalay CI) (A431 cells [3]): synergized with erlotinib | Synergy with erlotinib in reducing viability (Chou-Talalay CI) (HCT116 cells): synergized with erlotinib | Cell motility, inhibitor in combination with erlotinib (A431 cells [4]): no statistically significant synergy

C#Cc1cccc(Nc2ncnc3cc(OCCOC)c(OCCOC)cc23)c1 [erlotinib]
Phosphorylation of 46 signaling proteins, single agent (A431 cells [5]): blocked EGF-induced activation of multiple signaling pathways

GAB2 (sense CACCAATTCTGAAGACAACTA; target sequence only, further chemistry not given here)
Ratio (CPT11) (A431 cells [1]): 0.83

Cn1cc(C2=C(c3cn(CCCSC(=N)N)c4ccccc34)C(=O)NC2=O)c2ccccc21 [Ro-318220]
Synergy with erlotinib in reducing viability (Chou-Talalay CI) (A431 cells [3]): synergized very significantly | Synergy with erlotinib in reducing viability (Chou-Talalay CI) (HCT116 cells): synergized very significantly | Cell motility, inhibitor in combination with erlotinib (A431 cells [4]): significantly reduced tumor cell motility

MAP3K1 (sense CACGCATGTCAAATTCTCATA; target sequence only, antisense strand not given here)
Ratio (Erlotinib) (A431 cells [1]): 0.66
